Assay results: paper doi:10.1101/2024.08.19.608619, “Discovery of potent SARS-CoV-2 nsp3 macrodomain inhibitors uncovers lack of translation to cellular antiviral response” (bioRxiv, 2024)
Converted amounts (≈) assume the structure as drawn.

test system: not listed separately; test: Hepatic microsomal stability, MLM; assay type: in vitro ADME; conditions: In vitro mouse liver microsomal stability

`CC(C)[C@@H](Nc1ncnc2[nH]c(-c3cnn(C)c3C#N)cc12)c1ccc2c(n1)NC(=O)CO2` (single isomer, unassigned) [ASAP-0011180] and `CC(C)[C@H](Nc1ncnc2[nH]c(-c3cnn(C)c3)cc12)c1ccc2c(c1)S(=O)(=O)CCC2` (single isomer, unassigned) [ASAP-0012327] are within 1.5-fold of each other in clint: 189.0 µL/min/mg for the first, 255.0 µL/min/mg for the second.

Compared with `CC(C)[C@@H](Nc1ncnc2[nH]c(-c3cnn(C)c3C#N)cc12)c1ccc2c(n1)NC(=O)CO2` (single isomer, unassigned) [ASAP-0011180], `CC(C)[C@H](Nc1ncnc2[nH]c(-c3cnn(C)c3)cc12)c1ccc2c(c1)S(=O)(=O)CCC2` (single isomer, unassigned) [ASAP-0012327] is lower in perc_remaining: 5.0% for the first, 1.0% for the second.

`CC(C)[C@@H](Nc1ncnc2[nH]c(-c3cnn(C)c3C#N)cc12)c1ccc2c(n1)NC(=O)CO2` (single isomer, unassigned) [ASAP-0011180] and `CC(C)[C@H](Nc1ncnc2[nH]c(-c3cnn(C)c3)cc12)c1ccc2c(c1)S(=O)(=O)CCC2` (single isomer, unassigned) [ASAP-0012327] are within 1.5-fold of each other in t_half: 8.8 min for the first, 6.5 min for the second.

same assay, conditions: In vitro mouse liver microsomal stability, no cofactor

First: CC(C)[C@@H](Nc1ncnc2[nH]c(-c3cnn(C)c3C#N)cc12)c1ccc2c(n1)NC(=O)CO2 (single isomer, unassigned) [ASAP-0011180]
Second: CC(C)[C@H](Nc1ncnc2[nH]c(-c3cnn(C)c3)cc12)c1ccc2c(c1)S(=O)(=O)CCC2 (single isomer, unassigned) [ASAP-0012327]
The perc_remaining_no_cofactor of the first is lower: 92.0% for the first, 98.0% for the second.

test system: not listed separately; test: In vitro kinetic solubility; conditions: In vitro kinetic solubility, ph 7.4

Going from `CC(C)[C@@H](Nc1ncnc2[nH]c(-c3cnn(C)c3C#N)cc12)c1ccc2c(n1)NC(=O)CO2` (single isomer, unassigned) [ASAP-0011180] to `CC(C)[C@H](Nc1ncnc2[nH]c(-c3cnn(C)c3)cc12)c1ccc2c(c1)S(=O)(=O)CCC2` (single isomer, unassigned) [ASAP-0012327], the solubility_mean rises from 28 µM (≈ 12.4 µg/mL) to 111 µM (≈ 50 µg/mL) (4-fold).

test system: not listed separately; test: LogD; conditions: pH 7.4; In vitro LogD

Compared with `CC(C)[C@@H](Nc1ncnc2[nH]c(-c3cnn(C)c3C#N)cc12)c1ccc2c(n1)NC(=O)CO2` (single isomer, unassigned) [ASAP-0011180], `CC(C)[C@H](Nc1ncnc2[nH]c(-c3cnn(C)c3)cc12)c1ccc2c(c1)S(=O)(=O)CCC2` (single isomer, unassigned) [ASAP-0012327] is lower in logd: 3.7 for the first, 2.9 for the second.

test system: not listed separately; test: Permeability Papp (AB) MDR1/MDCKII; conditions: In vitro MDR1-MDCKII permeability, A to B, mean

`CC(C)[C@@H](Nc1ncnc2[nH]c(-c3cnn(C)c3C#N)cc12)c1ccc2c(n1)NC(=O)CO2` (single isomer, unassigned) [ASAP-0011180] gave a papp_a_to_b_mean of 9.64 ×10⁻⁶ cm/s.

same assay, conditions: In vitro MDR1-MDCKII permeability, A to B, no inhibitor

In the case of `CC(C)[C@H](Nc1ncnc2[nH]c(-c3cnn(C)c3)cc12)c1ccc2c(c1)S(=O)(=O)CCC2` (single isomer, unassigned) [ASAP-0012327], the papp_a_to_b_mean is reported as 1.18 ×10⁻⁶ cm/s.

same assay, conditions: In vitro MDR1-MDCKII permeability, recovery A to B, mean

For `CC(C)[C@@H](Nc1ncnc2[nH]c(-c3cnn(C)c3C#N)cc12)c1ccc2c(n1)NC(=O)CO2` (single isomer, unassigned) [ASAP-0011180], the perc_recovery_a_to_b_mean was 84.8%.

same assay, conditions: In vitro MDR1-MDCKII permeability, recovery A to B, no inhibitor

`CC(C)[C@H](Nc1ncnc2[nH]c(-c3cnn(C)c3)cc12)c1ccc2c(c1)S(=O)(=O)CCC2` (single isomer, unassigned) [ASAP-0012327] gave a perc_recovery_a_to_b_mean of 65.0%.

test system: not listed separately; test: Hepatic microsomal stability, HLM; assay type: in vitro ADME, human; conditions: In vitro human liver microsomal stability

Compared with `CC(C)[C@@H](Nc1ncnc2[nH]c(-c3cnn(C)c3C#N)cc12)c1ccc2c(n1)NC(=O)CO2` (single isomer, unassigned) [ASAP-0011180], `CC(C)[C@H](Nc1ncnc2[nH]c(-c3cnn(C)c3)cc12)c1ccc2c(c1)S(=O)(=O)CCC2` (single isomer, unassigned) [ASAP-0012327] is 3.3-fold higher in clint: 51.0 µL/min/mg for the first, 169.0 µL/min/mg for the second.

Compared with `CC(C)[C@@H](Nc1ncnc2[nH]c(-c3cnn(C)c3C#N)cc12)c1ccc2c(n1)NC(=O)CO2` (single isomer, unassigned) [ASAP-0011180], `CC(C)[C@H](Nc1ncnc2[nH]c(-c3cnn(C)c3)cc12)c1ccc2c(c1)S(=O)(=O)CCC2` (single isomer, unassigned) [ASAP-0012327] is lower in perc_remaining: 43.0% for the first, 7.0% for the second.

Going from `CC(C)[C@@H](Nc1ncnc2[nH]c(-c3cnn(C)c3C#N)cc12)c1ccc2c(n1)NC(=O)CO2` (single isomer, unassigned) [ASAP-0011180] to `CC(C)[C@H](Nc1ncnc2[nH]c(-c3cnn(C)c3)cc12)c1ccc2c(c1)S(=O)(=O)CCC2` (single isomer, unassigned) [ASAP-0012327], the t_half falls from 32.6 min to 9.9 min (3.3-fold).

same assay, conditions: In vitro human liver microsomal stability; no cofactor

First: CC(C)[C@@H](Nc1ncnc2[nH]c(-c3cnn(C)c3C#N)cc12)c1ccc2c(n1)NC(=O)CO2 (single isomer, unassigned) [ASAP-0011180]
Second: CC(C)[C@H](Nc1ncnc2[nH]c(-c3cnn(C)c3)cc12)c1ccc2c(c1)S(=O)(=O)CCC2 (single isomer, unassigned) [ASAP-0012327]
The perc_remaining_no_cofactor of the first is higher: 98.0% for the first, 95.0% for the second.

test system: SARS-CoV-2, isolate USA-WA1/2020; test: microbe, parasite or virus in culture; assay type: cell-based; conditions: HeLa-ACE2 SARS-CoV-2 antiviral effect without P-gp inhibitor; maximum measured response of dose series

First: CC(C)[C@@H](Nc1ncnc2[nH]c(-c3cnn(C)c3C#N)cc12)c1ccc2c(n1)NC(=O)CO2 (single isomer, unassigned) [ASAP-0011180]
Second: CC(C)[C@H](Nc1ncnc2[nH]c(-c3cnn(C)c3)cc12)c1ccc2c(c1)S(=O)(=O)CCC2 (single isomer, unassigned) [ASAP-0012327]
The perc_max_measured of the first is higher: 122.922% for the first, 111.115% for the second.

Work on `COc1ccc([C@@H](Cc2nnn[nH]2)NC(=O)c2ncnc3[nH]ccc23)cc1` [ASAP-0015384] yielded a perc_max_measured of 136.92%.

same assay, conditions: HeLa-ACE2 SARS-CoV-2 antiviral effect without P-gp inhibitor; minimum measured response of dose series

Compared with `CC(C)[C@@H](Nc1ncnc2[nH]c(-c3cnn(C)c3C#N)cc12)c1ccc2c(n1)NC(=O)CO2` (single isomer, unassigned) [ASAP-0011180], `CC(C)[C@H](Nc1ncnc2[nH]c(-c3cnn(C)c3)cc12)c1ccc2c(c1)S(=O)(=O)CCC2` (single isomer, unassigned) [ASAP-0012327] is higher in perc_min_measured: 8.802% for the first, 52.798% for the second.

With `COc1ccc([C@@H](Cc2nnn[nH]2)NC(=O)c2ncnc3[nH]ccc23)cc1` [ASAP-0015384] the perc_min_measured was 93.837%.

same assay, conditions: HeLa-ACE2 SARS-CoV-2 antiviral effect without P-gp inhibitor; read-out: ec50

Going from `CC(C)[C@@H](Nc1ncnc2[nH]c(-c3cnn(C)c3C#N)cc12)c1ccc2c(n1)NC(=O)CO2` (single isomer, unassigned) [ASAP-0011180] to `CC(C)[C@H](Nc1ncnc2[nH]c(-c3cnn(C)c3)cc12)c1ccc2c(c1)S(=O)(=O)CCC2` (single isomer, unassigned) [ASAP-0012327], the EC50 rises from 2.46 µM to over 20 µM.

With `COc1ccc([C@@H](Cc2nnn[nH]2)NC(=O)c2ncnc3[nH]ccc23)cc1` [ASAP-0015384] the EC50 was over 20 µM.

same assay, conditions: HeLa-ACE2 SARS-CoV-2 antiviral effect without P-gp inhibitor; read-out: ec90

First: CC(C)[C@@H](Nc1ncnc2[nH]c(-c3cnn(C)c3C#N)cc12)c1ccc2c(n1)NC(=O)CO2 (single isomer, unassigned) [ASAP-0011180]
Second: CC(C)[C@H](Nc1ncnc2[nH]c(-c3cnn(C)c3)cc12)c1ccc2c(c1)S(=O)(=O)CCC2 (single isomer, unassigned) [ASAP-0012327]
The EC90 of the first is lower: 5.57 µM for the first, over 20 µM for the second.

With `COc1ccc([C@@H](Cc2nnn[nH]2)NC(=O)c2ncnc3[nH]ccc23)cc1` [ASAP-0015384] the EC90 was over 20 µM.

test system: not listed separately; test: in vitro; conditions: human, hela-ace2 cells, 50.0

`CC(C)[C@@H](Nc1ncnc2[nH]c(-c3cnn(C)c3C#N)cc12)c1ccc2c(n1)NC(=O)CO2` (single isomer, unassigned) [ASAP-0011180] and `CC(C)[C@H](Nc1ncnc2[nH]c(-c3cnn(C)c3)cc12)c1ccc2c(c1)S(=O)(=O)CCC2` (single isomer, unassigned) [ASAP-0012327] cannot be ordered by CC50 at 24 h: over 20 µM for the first, over 20 µM for the second.

With `COc1ccc([C@@H](Cc2nnn[nH]2)NC(=O)c2ncnc3[nH]ccc23)cc1` [ASAP-0015384] the CC50 at 24 h was over 20 µM.

test system: HeLa-ACE2 cells; test: not given; conditions: HeLa-ACE2 cytotoxicity

`CC(C)[C@@H](Nc1ncnc2[nH]c(-c3cnn(C)c3C#N)cc12)c1ccc2c(n1)NC(=O)CO2` (single isomer, unassigned) [ASAP-0011180] and `CC(C)[C@H](Nc1ncnc2[nH]c(-c3cnn(C)c3)cc12)c1ccc2c(c1)S(=O)(=O)CCC2` (single isomer, unassigned) [ASAP-0012327] cannot be ordered by CC50: over 20 µM for the first, over 20 µM for the second.

Work on `COc1ccc([C@@H](Cc2nnn[nH]2)NC(=O)c2ncnc3[nH]ccc23)cc1` [ASAP-0015384] yielded a CC50 of over 20 µM.

Compound `CC(C)[C@@H](Nc1ncnc2[nH]c(-c3cnn(C)c3C#N)cc12)c1ccc2c(n1)NC(=O)CO2` (single isomer, unassigned) [ASAP-0011180] has a cc10 of over 20.0 µM.
Work on `CC(C)[C@H](Nc1ncnc2[nH]c(-c3cnn(C)c3)cc12)c1ccc2c(c1)S(=O)(=O)CCC2` (single isomer, unassigned) [ASAP-0012327] yielded a cc10 of over 20.0 µM.
Compound `COc1ccc([C@@H](Cc2nnn[nH]2)NC(=O)c2ncnc3[nH]ccc23)cc1` [ASAP-0015384] has a cc10 of over 20.0 µM.

same assay, conditions: HeLa-ACE2 cytotoxicity; highest measured response of the dose series

Compared with `CC(C)[C@@H](Nc1ncnc2[nH]c(-c3cnn(C)c3C#N)cc12)c1ccc2c(n1)NC(=O)CO2` (single isomer, unassigned) [ASAP-0011180], `CC(C)[C@H](Nc1ncnc2[nH]c(-c3cnn(C)c3)cc12)c1ccc2c(c1)S(=O)(=O)CCC2` (single isomer, unassigned) [ASAP-0012327] is lower in perc_max_measured: 104.887% for the first, 100.334% for the second.

In the case of `COc1ccc([C@@H](Cc2nnn[nH]2)NC(=O)c2ncnc3[nH]ccc23)cc1` [ASAP-0015384], the perc_max_measured is reported as 99.805%.

same assay, conditions: HeLa-ACE2 cytotoxicity; lowest measured response of the dose series

First: CC(C)[C@@H](Nc1ncnc2[nH]c(-c3cnn(C)c3C#N)cc12)c1ccc2c(n1)NC(=O)CO2 (single isomer, unassigned) [ASAP-0011180]
Second: CC(C)[C@H](Nc1ncnc2[nH]c(-c3cnn(C)c3)cc12)c1ccc2c(c1)S(=O)(=O)CCC2 (single isomer, unassigned) [ASAP-0012327]
The perc_min_measured of the first is lower: 81.763% for the first, 94.258% for the second.

With `COc1ccc([C@@H](Cc2nnn[nH]2)NC(=O)c2ncnc3[nH]ccc23)cc1` [ASAP-0015384] the perc_min_measured was 83.484%.
